Here are results for 1 cell line from the supplement of paper PMC10307832.

What all share (experiment): relative viability (nuclei count vs DMSO), 5 days (fraction); higher = more cells survive
Compound in the assay “Pazopanib + Tozasertib”: Cc1ccc(Nc2nccc(N(C)c3ccc4c(C)n(C)nc4c3)n2)cc1S(N)(=O)=O [Pazopanib] + Cc1cc(Nc2cc(N3CCN(C)CC3)nc(Sc3ccc(NC(=O)C4CC4)cc3)n2)n[nH]1 [Tozasertib] (partner 0.1 µM)
The procedure, abridged: (§1)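 Each reported value is a median over duplicate plates. It expresses relative viability: treated-well nuclei count divided by vehicle-well nuclei count. Lung cancer cell lines in 1536-well plates were dosed by pin tool a day after seeding, alone with one drug or with a fixed anchor-drug dose plus five library-drug doses (not always all listed) in √10 steps, and nuclei were counted after 5 days.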

Compound in the assay “Pazopanib + Decitabine”: Cc1ccc(Nc2nccc(N(C)c3ccc4c(C)n(C)nc4c3)n2)cc1S(N)(=O)=O [Pazopanib] + Nc1ncn([C@H]2C[C@H](O)[C@@H](CO)O2)c(=O)n1 [Decitabine] (partner 2 µM)
Summed up:
as §1

Compound in the assay “Ponatinib + Lapatinib”: Cc1ccc(C(=O)Nc2ccc(CN3CCN(C)CC3)c(C(F)(F)F)c2)cc1C#Cc1cnc2cccnn12 [Ponatinib] + CS(=O)(=O)CCNCc1ccc(-c2ccc3ncnc(Nc4ccc(OCc5cccc(F)c5)c(Cl)c4)c3c2)o1 [Lapatinib] (partner 2 µM)
Summed up:
as §1

Compound in the assay “Ponatinib + Linsitinib”: Cc1ccc(C(=O)Nc2ccc(CN3CCN(C)CC3)c(C(F)(F)F)c2)cc1C#Cc1cnc2cccnn12 [Ponatinib] + C[C@]1(O)C[C@@H](c2nc(-c3ccc4ccc(-c5ccccc5)nc4c3)c3c(N)nccn32)C1 [Linsitinib] (partner 1 µM)
The procedure, abridged:
as §1

With UMC-11, the relative viability in the assay with Pazopanib + Tozasertib (first compound 0.01 µM) was found to be 0.196; with Pazopanib + Tozasertib (first compound 0.03162 µM) it was 0.19; with Pazopanib + Tozasertib (first compound 0.1 µM) it was 0.208; with Pazopanib + Tozasertib (first compound 0.3162 µM), 0.206; with Pazopanib + Tozasertib (first compound 1 µM) it was 0.211; in the assay with Pazopanib + Decitabine (first compound 0.01 µM) it was 0.598. For the same cell line, the relative viability with Pazopanib + Decitabine (first compound 0.03162 µM) was found to be 0.686; in the assay with Pazopanib + Decitabine (first compound 0.1 µM) it was 0.616; with Pazopanib + Decitabine (first compound 0.3162 µM) it was 0.578; with Pazopanib + Decitabine (first compound 1 µM) it was 0.49; in the assay with Ponatinib + Lapatinib (first compound 0.002 µM) it was 1; in the assay with Ponatinib + Lapatinib (first compound 0.006325 µM), 1.05. The relative viability with Ponatinib + Lapatinib (first compound 0.06325 µM) stood at 1.17; with Ponatinib + Lapatinib (first compound 0.2 µM), 0.988; with Ponatinib + Linsitinib (first compound 0.002 µM) it was 1.02; with Ponatinib + Linsitinib (first compound 0.006325 µM), 1.03; with Ponatinib + Linsitinib (first compound 0.06325 µM) it was 1.16; in the assay with Ponatinib + Linsitinib (first compound 0.2 µM), 1.03.
